Data published in the supplement of paper PMC11451515.

Columns and labels:
Experiment in all cases: AUC of viability dose-response curve (% viability x log10 dose units); higher = less sensitive
Conditions in all cases: 48 h
NOMO1 = tested on: NOMO1
How it was run: (§1)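 Area under the curve was integrated by trapezoidal rule from a log-logistic fit of normalised viability, with curves exceeding full viability scaled and quality-control failures removed. The fit had four parameters over log10 doses. Viability came from CellTiter-Glo One luminescence, normalised per plate to DMSO and cell-free wells, after leukemia cells adapted to each medium (500 or 1000 cells/well, 1536-well plates) were exposed to library compounds in DMSO for 48 h at 37°C. The 11 threefold doses ran from 47 μM to 0.79 nM.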

P12-Ichikawa = tested on: P12-Ichikawa
How it was run: as §1

SEM cells = tested on: SEM cells
How it was run: as §1

[1] = RPMI 5 mM glucose + 10% dialyzed FBS

Row | Compound | AUC of viability dose-response curve (NOMO1; HPLM + 10% dialyzed FBS) | AUC of viability dose-response curve (NOMO1; RPMI 5 mM glucose + 10% FBS) | AUC of viability dose-response curve (NOMO1; [1]) | AUC of viability dose-response curve (P12-Ichikawa; HPLM + 10% dialyzed FBS) | AUC of viability dose-response curve (P12-Ichikawa; RPMI 5 mM glucose + 10% FBS) | AUC of viability dose-response curve (P12-Ichikawa; [1]) | AUC of viability dose-response curve (SEM cells; HPLM + 10% dialyzed FBS) | AUC of viability dose-response curve (SEM cells; RPMI 5 mM glucose + 10% FBS) | AUC of viability dose-response curve (SEM cells; [1])
1 | Cc1c[nH]c(/C=C2\C(=O)Nc3ccccc32)c1CCC(=O)O | 399 | 440 | 428 | 436 | 413 | 390 | – | – | –
2 | CC1SC/2=C(C(O)=O)/C(=O)C3=CC(=C(C=C3N12)N4CCN(CC4)C\C5=C(C)\OC(=O)O5)F (stereo not drawn) | 413 | 456 | 443 | 437 | 449 | 449 | 472 | 442 | 449
3 | O=C/1\C=C(/OC(=C1)/C2=C3SC4=C(SC3=CC=C2)C=CC=C4)N5CCOCC5 | – | – | – | – | – | – | 417 | 409 | 411
4 | CNC(=O)c1cccc(-c2ccc3c(N4CCOC[C@@H]4C)nc(N4CCOC[C@@H]4C)nc3n2)c1 | 343 | 376 | 323 | 370 | 316 | 322 | 305 | 333 | 305
5 | O=C1c2c(O)cccc2[C@H]([C@@H]2O[C@H](CO)[C@@H](O)[C@H](O)[C@H]2O)c2cc(CO)cc(O)c21 | 455 | 404 | 431 | 467 | 467 | 465 | 449 | 431 | 441
6 | C[C@H](NC(=O)C(=O)Nc1ccccc1C(C)(C)C)C(=O)N[C@@H](CC(=O)O)C(=O)COc1c(F)c(F)cc(F)c1F | 428 | 445 | 450 | 440 | 427 | 425 | 395 | 391 | 390
7 | COc1ccc(/C=C\c2cc(OC)c(OC)c(OC)c2)cc1O | 197 | 126 | 155 | 48.7 | 57 | 71.5 | 85.1 | 50.9 | 70
8 | Cc1ccc(-n2nc(C(C)(C)C)cc2NC(=O)Nc2ccc(OCCN3CCOCC3)c3ccccc23)cc1 | 474 | 460 | 471 | 477 | 463 | 473 | 403 | 399 | 398
